Data as given in patent US8877748B2, “Heterocyclic fused anthraquinone derivatives, manufacturing method and pharmaceutical composition using thereof” (National Defense Medical Center, priority 2012, dated 2014).

Tests used:
Assay type in all cases: cell-based, human
[1] = tested on: MOLT-4; assay: NCI one-dose screening, leukemia MOLT-4; details: 10 μM
[2] = tested on: SR; assay: NCI one-dose screening, leukemia SR; details: 10 μM
[3] = tested on: 786-O; assay: NCI one-dose screening, renal cancer 786-O; details: 10 μM
[4] = tested on: NCI-H522; assay: NCI one-dose screening, non-small cell lung cancer NCI-H522; details: 10 μM
[5] = tested on: SF-295; assay: NCI one-dose screening, CNS cancer SF-295; details: 10 μM
[6] = tested on: ACHN; assay: NCI one-dose screening, renal cancer ACHN; details: 10 μM
[7] = tested on: OVCAR-5; assay: NCI one-dose screening, ovarian cancer OVCAR-5; details: 10 μM
[8] = tested on: UACC-257; assay: NCI one-dose screening, melanoma UACC-257; details: 10 μM
[9] = tested on: TK-10; assay: NCI one-dose screening, renal cancer TK-10; details: 10 μM
[10] = tested on: SF-539; assay: NCI one-dose screening, CNS cancer SF-539; details: 10 μM
[11] = tested on: UACC-62; assay: NCI one-dose screening, melanoma UACC-62; details: 10 μM
[12] = tested on: CCRF-CEM; assay: NCI screening platform one-dose single concentration screening, leukemia CCRF-CEM; details: 10 μM
[13] = tested on: RXF, 393; assay: NCI one-dose screening, renal cancer RXF, 393; details: 10 μM
[14] = tested on: OVCAR-8; assay: NCI one-dose screening, ovarian cancer OVCAR-8; details: 10 μM
[15] = tested on: M14; assay: NCI one-dose screening, melanoma M14; details: 10 μM
[16] = tested on: A549/ATCC; assay: NCI one-dose screening, non-small cell lung cancer A549/ATCC; details: 10 μM
[17] = tested on: HCC-2998; assay: NCI one-dose screening, colon cancer HCC-2998; details: 10 μM
[18] = tested on: SK-MEL-28; assay: NCI one-dose screening, melanoma SK-MEL-28; details: 10 μM
[19] = tested on: OVCAR-4; assay: NCI one-dose screening, ovarian cancer OVCAR-4; details: 10 μM
[20] = tested on: NCI-H226; assay: NCI one-dose screening, non-small cell lung cancer NCI-H226; details: 10 μM
[21] = tested on: NCl/ADR-RES; assay: NCI one-dose screening, breast cancer NCl/ADR-RES; details: 10 μM; listed under Ovarian cancer
[22] = tested on: SK-MEL-5; assay: NCI one-dose screening, melanoma SK-MEL-5; details: 10 μM
[23] = tested on: MDA, -MB-435; assay: NCI one-dose screening, breast cancer MDA, -MB-435; details: 10 μM; listed under Melanoma
[24] = tested on: PC-3 prostate cancer cell line; assay: SRB assay cell viability, PC-3 prostate cancer cell line; details: Homo sapiens, PC-3 prostate cancer cell line, Table II prints no unit, μM printed, read-out: SRB assay: 50% inhibition of cancer cell proliferation of sample concentration (IC50) of PC-3 prostate cancer cell line
[25] = tested on: SNB-75; assay: NCI one-dose screening, CNS cancer SNB-75; details: 10 μM
[26] = tested on: COLO 205; assay: NCI one-dose screening, colon cancer COLO 205; details: 10 μM
[27] = tested on: OVCAR-3; assay: NCI one-dose screening, ovarian cancer OVCAR-3; details: 10 μM
[28] = tested on: MALME-3M; assay: NCI one-dose screening, melanoma MALME-3M; details: 10 μM
[29] = tested on: SF-268; assay: NCI one-dose screening, CNS cancer SF-268; details: 10 μM
[30] = tested on: HL-60, TB; assay: NCI one-dose screening, leukemia HL-60, TB; details: 10 μM
[31] = tested on: NCI-H322M; assay: NCI one-dose screening, non-small cell lung cancer NCI-H322M; details: 10 μM; Non-small cell lung cancer
[32] = tested on: EKVX; assay: NCI one-dose screening, non-small cell lung cancer EKVX; details: 10 μM
[33] = tested on: HOP-62; assay: NCI one-dose screening, non-small cell lung cancer HOP-62; details: 10 μM
[34] = tested on: SNB-19; assay: NCI one-dose screening, CNS cancer SNB-19; details: 10 μM
[35] = tested on: PRMI-8226 cell line; assay: NCI one-dose screening, leukemia PRMI-8226; details: 10 μM
[36] = tested on: NCI-H460; assay: NCI one-dose screening, non-small cell lung cancer NCI-H460; details: 10 μM
[37] = tested on: HCT-116; assay: NCI one-dose screening, colon cancer HCT-116; details: 10 μM
[38] = tested on: SN12C; assay: NCI one-dose screening, renal cancer SN12C; details: 10 μM
[39] = tested on: SK-MEL-2; assay: NCI one-dose screening, melanoma SK-MEL-2; details: 10 μM
[40] = tested on: HCT-15; assay: NCI one-dose screening, colon cancer HCT-15; details: 10 μM
[41] = tested on: CAKI-1; assay: NCI one-dose screening, renal cancer CAKI-1; details: 10 μM
[42] = tested on: IGROV1; assay: NCI one-dose screening, ovarian cancer IGROV1; details: 10 μM
[43] = tested on: U251; assay: NCI one-dose screening, CNS cancer U251; details: 10 μM
[44] = tested on: NCI-H23; assay: NCI one-dose screening, non-small cell lung cancer NCI-H23; details: 10 μM
[45] = tested on: KM12; assay: NCI one-dose screening, colon cancer KM12; details: 10 μM
[46] = tested on: LOX IMVI; assay: NCI one-dose screening, melanoma LOX IMVI; details: 10 μM
[47] = tested on: K562cell line; assay: NCI one-dose screening, leukemia K562; details: 10 μM
[48] = tested on: HT29; assay: NCI one-dose screening, colon cancer HT29; details: 10 μM

CCSc1cc2c(c3nsnc13)C(=O)c1ccccc1C2=O [C16, 4-(ethylthio)anthra[2,1-c][1,2,5] thiadiazol-6,11-dione]
Growth Percent MOLT-4 [1]: −50.44% | Growth Percent SR [2]: −54.27% | Growth Percent 786-0 [3]: 80.27% | Growth Percent NCI-H522 [4]: −88.01% | Growth Percent SF-295 [5]: 79.94% | Growth Percent ACHN [6]: −44.97% | Growth Percent OVCAR-5 [7]: 115.03% | Growth Percent UACC-257 [8]: −86.35% | Growth Percent TK-10 [9]: 103.17% | Growth Percent SF-539 [10]: −22.78% | Growth Percent UACC-62 [11]: −38.24% | Growth Percent CCRF-CEM [12]: −35.53% | Growth Percent RXF 393 [13]: −62.42% | Growth Percent OVCAR-8 [14]: −79.84% | Growth Percent M14 [15]: 47.15% | Growth Percent A549/ATCC [16]: 20.39% | Growth Percent HCC-2998 [17]: 90.47% | Growth Percent SK-MEL-28 [18]: −41.99% | Growth Percent OVCAR-4 [19]: −100.00% | Growth Percent NCI-H226 [20]: 53.41% | Growth Percent NCI/ADR-RES [21]: −37.28% | Growth Percent SK-MEL-5 [22]: −94.86% | Growth Percent MDA-MB-435 [23]: −61.08% | IC50 [24]: 5.39 µM | Growth Percent SNB-75 [25]: 33.65% | Growth Percent COLO 205 [26]: 97.05% | Growth Percent OVCAR-3 [27]: −76.39% | Growth Percent MALME-3M [28]: −58.68% | Growth Percent SF-268 [29]: −54.89% | Growth Percent HL-60(TB) [30]: −45.01% | Growth Percent NCI-H322M [31]: 89.71% | Growth Percent EKVX [32]: 56.13% | Growth Percent HOP-62 [33]: 2.44% | Growth Percent SNB-19 [34]: 83.19% | Growth Percent RPMI-8226 [35]: −35.20% | Growth Percent NCI-H460 [36]: 27.92% | Growth Percent HCT-116 [37]: −82.82% | Growth Percent SN12C [38]: −61.79% | Growth Percent SK-MEL-2 [39]: −69.35% | Growth Percent HCT-15 [40]: 2.65% | Growth Percent CAKI-1 [41]: −1.76% | Growth Percent IGROV1 [42]: −54.45% | Growth Percent U251 [43]: −73.58% | Growth Percent NCI-H23 [44]: −25.43% | Growth Percent KM12 [45]: 69.33% | Growth Percent LOX IMVI [46]: −91.42% | Growth Percent K562 [47]: −44.64% | Growth Percent HT29 [48]: 77.39%
